Results published in paper PMC12510174 (International Journal of Biological Sciences, 2025).

Legend:
[1] = tested on: WERI-Rb1 orthotopic RB model; settings: mouse, in vivo
[2] = tested on: WERI-Rb1 orthotopic RB model; settings: mouse, in vivo; remark: listed apart in the source
[3] = tested on: WERI-Rb1 orthotopic RB model; settings: mouse, in vivo; remark: listed apart in the source
[4] = mouse, in vivo
retinoblastoma = settings: human, in vivo; cited from earlier work
[5] = tested on: WERI-Rb1 orthotopic RB model; settings: mouse, in vivo; remark: listed apart in the source

SMILES	FITC-labeled Pri-MP uptake (Endocytosis species) alone or with added inhibitor (WERI-Rb1)	FITC-labeled Pri-MP uptake (Endocytosis species) alone or with added inhibitor (Y79)	reduction of Pri-MP uptake relative to vehicle controls (RB cells)	also measured
N[C@@H](Cc1ccc(N(CCCl)CCCl)cc1)C(=O)O [Melphalan]	–	–	–	reduction of tumor burden (tumor area) [1]: 82.6%; increase of p53 expression relative to the Control group [2]: 71%; decrease of Ki-67 expression relative to the control [3]: about 30.3%; alanine aminotransferase and aspartate aminotransferase levels [4]: did not significantly deviate from the Control group; body weight during treatment [4]: no significant difference; overall globe salvage rate (retinoblastoma): 66.4%; TUNEL positivity relative to the Control group [5]: 1.77 fold
N=C(N)NC(=O)c1nc(Cl)c(N)nc1N [amiloride]	22.9%	29.8%	–	inhibitory effect on Pri-MP uptake (WERI-Rb1): 73.0%; inhibitory effect on Pri-MP uptake (Y79): 64.5%
CN(C)CCCN1c2ccccc2Sc2ccc(Cl)cc21 [chlorpromazine]	87.0%	87.6%	< 10%	–
C=C1[C@@H](C)[C@H]2[C@H](Cc3ccccc3)NC(=O)[C@]23[C@H](OC(C)=O)/C=C/[C@@](C)(O)C(=O)[C@@H](C)C/C=C/[C@H]3[C@@H]1O [cytochalasin D]	38.4%	22.3%	–	inhibitory effect on Pri-MP uptake (WERI-Rb1): 55.4%; inhibitory effect on Pri-MP uptake (Y79): 72.4%
O=C(N/N=C/c1ccc(O)c(O)c1)c1cc2ccccc2cc1O [dynasore]	70.1%	73.8%	< 10%	–
CCCCC[C@@H](O)[C@H]1C(=O)O[C@H](C)[C@@H](O)/C=C/C=C/C=C/C=C/C=C(\C)[C@@H](O)C[C@H](O)C[C@H](O)C[C@H](O)C[C@H](O)C[C@H](O)C[C@@H]1O [filipin]	84.8%	78.6%	< 10%	–
O=c1c(-c2ccc(O)cc2)coc2cc(O)cc(O)c12 [genistein]	87.0%	85.2%	–	–
